Experimental data as given in ChEMBL document CHEMBL4138316, “Optimization of Isothiazolo[4,3- b]pyridine-Based Inhibitors of Cyclin G Associated Kinase (GAK) with Broad-Spectrum Antiviral Activity” (J Med Chem, 2018).
≈ marks a conversion by molar mass, not a printed value. Calls of active or inactive are those of the source. The calls are words filed in the database; no cut-off is given here.

Experiments:
Huh-7 [1] = assay: Cytotoxicity against human HuH7 cells after 48 hrs by Alamar Blue assay; assay type: cell-based; details: huh-7, 48 h
Huh-7 [2] = assay: Cytotoxicity against human HuH7 cells after 48 hrs by CellTiter-Glo assay; assay type: cell-based; details: huh-7, 48 h
Ebolavirus = assay: Antiviral activity against Ebolavirus infected in human HuH7 cells after 48 hrs by immunofluorescence assay; assay type: functional, cell-based; details: for EC90: Orthoebolavirus, Huh-7, 48 h
[3] = molecular target: T1, Cyclin-G-associated kinase (Homo sapiens, UniProt O14976)
T1 sequence (O14976 whole entry): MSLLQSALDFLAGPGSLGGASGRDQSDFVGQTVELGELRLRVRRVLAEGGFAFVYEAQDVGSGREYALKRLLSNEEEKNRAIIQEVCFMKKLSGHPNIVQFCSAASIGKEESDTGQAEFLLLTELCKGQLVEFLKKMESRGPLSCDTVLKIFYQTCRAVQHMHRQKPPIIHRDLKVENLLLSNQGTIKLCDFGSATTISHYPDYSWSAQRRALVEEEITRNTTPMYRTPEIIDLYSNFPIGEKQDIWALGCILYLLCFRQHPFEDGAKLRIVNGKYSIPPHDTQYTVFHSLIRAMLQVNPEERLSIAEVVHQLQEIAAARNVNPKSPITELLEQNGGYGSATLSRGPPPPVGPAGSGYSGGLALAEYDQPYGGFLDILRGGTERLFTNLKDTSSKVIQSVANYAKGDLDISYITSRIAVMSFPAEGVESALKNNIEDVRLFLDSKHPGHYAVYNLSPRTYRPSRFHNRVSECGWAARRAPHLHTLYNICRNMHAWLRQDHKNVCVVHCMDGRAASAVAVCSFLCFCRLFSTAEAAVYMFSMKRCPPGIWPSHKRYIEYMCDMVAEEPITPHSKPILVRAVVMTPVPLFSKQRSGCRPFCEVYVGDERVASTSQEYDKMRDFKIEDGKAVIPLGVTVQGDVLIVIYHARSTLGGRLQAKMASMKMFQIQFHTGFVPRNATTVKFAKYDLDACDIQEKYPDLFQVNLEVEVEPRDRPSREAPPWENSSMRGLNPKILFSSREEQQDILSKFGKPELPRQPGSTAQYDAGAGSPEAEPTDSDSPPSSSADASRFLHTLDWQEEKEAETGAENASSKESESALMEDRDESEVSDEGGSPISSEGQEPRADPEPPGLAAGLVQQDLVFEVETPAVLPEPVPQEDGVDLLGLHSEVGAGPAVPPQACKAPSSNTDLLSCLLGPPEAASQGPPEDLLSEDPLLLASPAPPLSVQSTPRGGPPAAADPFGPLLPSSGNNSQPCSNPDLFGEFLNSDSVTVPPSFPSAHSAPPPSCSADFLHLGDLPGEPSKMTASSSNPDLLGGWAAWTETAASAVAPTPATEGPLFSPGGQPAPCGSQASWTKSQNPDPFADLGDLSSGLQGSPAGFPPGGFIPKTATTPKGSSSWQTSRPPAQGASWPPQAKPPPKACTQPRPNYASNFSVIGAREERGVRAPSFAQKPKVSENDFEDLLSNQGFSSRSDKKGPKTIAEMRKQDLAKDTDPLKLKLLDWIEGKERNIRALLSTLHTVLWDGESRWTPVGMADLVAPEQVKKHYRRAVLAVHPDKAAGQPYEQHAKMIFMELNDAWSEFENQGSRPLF

dengue virus type 2 [4] = assay: Antiviral activity against DENV2 New Guinea C infected in human HuH7 cells after 48 hrs by luciferase reporter gene assay; assay type: functional, organism-based; details: Huh-7, 48 h
[5] = Aqueous solubility in PBS buffer at pH 7.4 at 100 uM after 1 hr by LC-MS/MS analysis; assay type: physicochemical; details: pH 7.4, 1 h
[6] = Apparent permeability cross basolateral to apical side in MDCK-MDR1 cells at 5 uM after 90 mins by LC-MS/MS analysis; assay type: ADME, cell-based, Canis lupus familiaris; details: dog, mdck-mdr1, 1.5 h
[7] = Apparent permeability cross apical to basolateral side in MDCK-MDR1 cells at 5 uM after 90 mins by LC-MS/MS analysis; assay type: ADME, cell-based, Canis lupus familiaris; details: dog, mdck-mdr1, 1.5 h
[8] = molecular target: T2, Aurora kinase C (Homo sapiens) (UniProt Q9UQB9); assay: Inhibition of wild-type human full length AURKC (M1 to S275 residues) expressed in bacterial expression system at 10 uM by ATP-site competition binding assay based KinomeScan assay relative to control
T2 sequence (whole entry): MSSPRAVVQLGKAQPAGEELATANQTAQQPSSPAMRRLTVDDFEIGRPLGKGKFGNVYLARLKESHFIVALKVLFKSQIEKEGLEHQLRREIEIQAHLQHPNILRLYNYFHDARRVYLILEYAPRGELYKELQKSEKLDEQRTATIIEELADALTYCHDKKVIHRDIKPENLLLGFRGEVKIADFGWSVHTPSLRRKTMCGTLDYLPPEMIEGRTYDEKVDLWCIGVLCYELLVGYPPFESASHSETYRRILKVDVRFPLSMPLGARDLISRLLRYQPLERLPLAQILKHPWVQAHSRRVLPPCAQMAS

[9] = Cytotoxicity against human MDDC cells after 72 hrs by Alamar Blue assay; assay type: cell-based
Chikungunya virus = assay: Antiviral activity against Chikungunya virus AF15561 infected in African green monkey Vero cells preincubated for 48 hrs followed by viral infection measured after 48 hrs by plaque assay; assay type: functional, organism-based
[10] = molecular target: Mitogen-activated protein kinase 14 (Homo sapiens) (UniProt Q16539); assay: Inhibition of wild-type human full length MAPK14 (M1 to S360 residues) expressed in bacterial expression system at 10 uM by ATP-site competition binding assay based KinomeScan assay relative to control
Sequence of Mitogen-activated protein kinase 14 (Homo sapiens) (Q16539 whole entry, the tested form may be a part): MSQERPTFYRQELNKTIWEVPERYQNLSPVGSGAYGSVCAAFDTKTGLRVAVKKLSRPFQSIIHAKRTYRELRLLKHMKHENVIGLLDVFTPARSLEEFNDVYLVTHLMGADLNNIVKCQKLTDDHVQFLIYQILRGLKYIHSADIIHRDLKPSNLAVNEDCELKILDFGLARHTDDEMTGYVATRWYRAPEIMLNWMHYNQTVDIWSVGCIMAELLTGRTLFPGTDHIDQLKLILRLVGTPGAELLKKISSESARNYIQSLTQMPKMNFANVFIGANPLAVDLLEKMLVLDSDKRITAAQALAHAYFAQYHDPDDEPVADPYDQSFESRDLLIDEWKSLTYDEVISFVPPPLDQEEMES

Dengue virus = assay: Antiviral activity against Dengue virus infected in doxycycline-inducible GAK (unkown origin) transfected TREx293 cells up to 20 uM after 72 hrs by luciferase reporter gene assay; assay type: functional, organism-based
[11] = molecular target: Receptor-type tyrosine-protein kinase FLT3 (Homo sapiens) (UniProt P36888); assay: Inhibition of wild-type human partial length FLT3 (V592 to Y969 residues) expressed in bacterial expression system at 10 uM by ATP-site competition binding assay based KinomeScan assay relative to control
Sequence of Receptor-type tyrosine-protein kinase FLT3 (Homo sapiens) (P36888 whole entry, the tested form may be a part): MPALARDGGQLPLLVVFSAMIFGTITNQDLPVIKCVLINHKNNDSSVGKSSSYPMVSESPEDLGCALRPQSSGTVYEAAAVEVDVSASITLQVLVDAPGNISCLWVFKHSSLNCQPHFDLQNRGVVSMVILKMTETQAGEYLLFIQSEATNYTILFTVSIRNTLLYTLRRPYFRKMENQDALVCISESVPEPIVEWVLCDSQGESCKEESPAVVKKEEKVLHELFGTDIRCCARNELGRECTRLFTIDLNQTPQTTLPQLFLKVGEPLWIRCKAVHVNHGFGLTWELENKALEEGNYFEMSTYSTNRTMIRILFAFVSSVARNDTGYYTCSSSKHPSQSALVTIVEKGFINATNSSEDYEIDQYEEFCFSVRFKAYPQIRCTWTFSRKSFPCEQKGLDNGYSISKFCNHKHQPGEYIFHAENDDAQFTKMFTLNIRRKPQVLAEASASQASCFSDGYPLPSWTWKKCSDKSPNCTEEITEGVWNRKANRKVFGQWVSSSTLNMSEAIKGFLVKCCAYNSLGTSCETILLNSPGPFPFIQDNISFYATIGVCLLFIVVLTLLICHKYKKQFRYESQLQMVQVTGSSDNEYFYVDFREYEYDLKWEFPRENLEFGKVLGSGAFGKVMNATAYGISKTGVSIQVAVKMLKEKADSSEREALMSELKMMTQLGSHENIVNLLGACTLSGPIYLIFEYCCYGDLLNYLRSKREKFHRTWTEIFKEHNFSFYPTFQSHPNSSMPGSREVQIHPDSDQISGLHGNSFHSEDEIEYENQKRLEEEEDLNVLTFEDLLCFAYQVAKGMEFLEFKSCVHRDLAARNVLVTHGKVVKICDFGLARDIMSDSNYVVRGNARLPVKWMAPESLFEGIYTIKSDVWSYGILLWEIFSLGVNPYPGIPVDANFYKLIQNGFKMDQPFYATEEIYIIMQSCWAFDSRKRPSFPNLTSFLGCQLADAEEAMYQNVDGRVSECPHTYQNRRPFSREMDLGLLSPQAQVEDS

[12] = molecular target: Ephrin type-A receptor 7 (Homo sapiens) (UniProt Q15375); assay: Inhibition of wild-type human partial length EPHA7 (Y608 to S912 residues) expressed in bacterial expression system at 10 uM by ATP-site competition binding assay based KinomeScan assay relative to control
Sequence of Ephrin type-A receptor 7 (Homo sapiens) (Q15375 28-998 limits assumed): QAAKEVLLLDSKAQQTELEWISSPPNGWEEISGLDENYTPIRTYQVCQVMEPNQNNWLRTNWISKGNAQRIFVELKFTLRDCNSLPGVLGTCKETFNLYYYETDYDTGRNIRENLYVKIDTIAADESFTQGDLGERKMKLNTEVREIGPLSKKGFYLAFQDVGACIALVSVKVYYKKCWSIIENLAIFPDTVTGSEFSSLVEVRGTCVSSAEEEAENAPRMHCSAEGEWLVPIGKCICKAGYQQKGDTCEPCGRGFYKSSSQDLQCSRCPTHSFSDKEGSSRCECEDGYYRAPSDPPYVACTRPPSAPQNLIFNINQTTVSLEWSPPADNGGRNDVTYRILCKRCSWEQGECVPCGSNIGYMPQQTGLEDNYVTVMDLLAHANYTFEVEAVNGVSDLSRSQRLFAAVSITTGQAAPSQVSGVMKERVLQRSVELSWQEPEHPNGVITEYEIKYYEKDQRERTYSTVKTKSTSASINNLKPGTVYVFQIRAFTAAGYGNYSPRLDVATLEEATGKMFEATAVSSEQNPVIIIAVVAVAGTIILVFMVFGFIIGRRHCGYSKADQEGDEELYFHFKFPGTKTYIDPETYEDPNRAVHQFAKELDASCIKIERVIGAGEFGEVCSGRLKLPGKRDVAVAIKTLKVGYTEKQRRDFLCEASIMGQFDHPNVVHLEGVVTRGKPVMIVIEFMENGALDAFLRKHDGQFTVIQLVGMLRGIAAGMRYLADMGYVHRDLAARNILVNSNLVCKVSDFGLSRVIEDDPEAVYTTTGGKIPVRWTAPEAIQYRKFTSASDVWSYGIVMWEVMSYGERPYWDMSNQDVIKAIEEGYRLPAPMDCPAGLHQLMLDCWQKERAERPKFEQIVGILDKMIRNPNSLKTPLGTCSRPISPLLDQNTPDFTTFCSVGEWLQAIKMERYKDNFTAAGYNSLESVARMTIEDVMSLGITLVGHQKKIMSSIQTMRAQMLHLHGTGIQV

[13] = molecular target: Platelet-derived growth factor receptor beta (Homo sapiens) (UniProt P09619); assay: Inhibition of wild-type human partial length PDGFRB (V582 to Y1009 residues) expressed in bacterial expression system at 10 uM by ATP-site competition binding assay based KinomeScan assay relative to control
Sequence of Platelet-derived growth factor receptor beta (Homo sapiens) (P09619 whole entry, the tested form may be a part): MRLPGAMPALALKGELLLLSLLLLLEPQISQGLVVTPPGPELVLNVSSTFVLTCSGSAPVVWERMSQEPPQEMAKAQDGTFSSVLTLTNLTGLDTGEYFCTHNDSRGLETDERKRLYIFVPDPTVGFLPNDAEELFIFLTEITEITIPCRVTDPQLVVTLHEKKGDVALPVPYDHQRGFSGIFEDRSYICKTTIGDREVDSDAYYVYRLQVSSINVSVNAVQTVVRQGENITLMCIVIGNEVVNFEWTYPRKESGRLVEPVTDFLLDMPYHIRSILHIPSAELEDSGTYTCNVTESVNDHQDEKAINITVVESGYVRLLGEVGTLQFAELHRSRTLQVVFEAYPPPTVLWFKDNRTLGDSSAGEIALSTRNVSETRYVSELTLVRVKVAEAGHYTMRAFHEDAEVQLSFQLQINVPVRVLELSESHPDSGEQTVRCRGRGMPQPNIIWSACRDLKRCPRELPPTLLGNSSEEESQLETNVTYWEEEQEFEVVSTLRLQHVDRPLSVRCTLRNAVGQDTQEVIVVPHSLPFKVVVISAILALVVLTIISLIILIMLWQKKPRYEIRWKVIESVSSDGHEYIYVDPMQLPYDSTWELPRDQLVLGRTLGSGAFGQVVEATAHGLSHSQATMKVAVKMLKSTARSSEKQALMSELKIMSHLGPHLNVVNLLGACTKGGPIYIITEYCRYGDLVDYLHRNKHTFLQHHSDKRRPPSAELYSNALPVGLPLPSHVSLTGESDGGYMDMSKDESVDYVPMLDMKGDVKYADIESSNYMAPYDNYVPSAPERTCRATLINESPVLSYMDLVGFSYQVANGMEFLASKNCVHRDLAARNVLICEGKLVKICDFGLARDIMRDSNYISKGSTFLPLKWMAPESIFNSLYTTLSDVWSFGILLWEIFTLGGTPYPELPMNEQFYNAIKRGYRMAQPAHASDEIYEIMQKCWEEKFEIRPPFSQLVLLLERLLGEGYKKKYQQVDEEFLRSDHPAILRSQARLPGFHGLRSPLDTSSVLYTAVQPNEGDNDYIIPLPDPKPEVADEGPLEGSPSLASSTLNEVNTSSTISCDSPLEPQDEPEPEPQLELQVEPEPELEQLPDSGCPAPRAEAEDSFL

dengue virus type 2 [14] = assay: Antiviral activity against DENV2 16881 infected in human MDDC after 72 hrs by plaque assay; assay type: functional, organism-based; details: Dengue virus, 16881, 72 h
[15] = molecular target: Mast/stem cell growth factor receptor Kit (Homo sapiens, UniProt P10721); assay: Inhibition of wild-type human partial length KIT (I571 to D952 residues) expressed in bacterial expression system at 10 uM by ATP-site competition binding assay based KinomeScan assay relative to control
[16] = molecular target: T3, Dual specificity mitogen-activated protein kinase kinase 5 (Homo sapiens) (UniProt Q13163); assay: Inhibition of wild-type human partial length MAP2K5 (L98 to P448 residues) expressed in mammalian expression system at 10 uM by ATP-site competition binding assay based KinomeScan assay relative to control
T3 sequence (whole entry): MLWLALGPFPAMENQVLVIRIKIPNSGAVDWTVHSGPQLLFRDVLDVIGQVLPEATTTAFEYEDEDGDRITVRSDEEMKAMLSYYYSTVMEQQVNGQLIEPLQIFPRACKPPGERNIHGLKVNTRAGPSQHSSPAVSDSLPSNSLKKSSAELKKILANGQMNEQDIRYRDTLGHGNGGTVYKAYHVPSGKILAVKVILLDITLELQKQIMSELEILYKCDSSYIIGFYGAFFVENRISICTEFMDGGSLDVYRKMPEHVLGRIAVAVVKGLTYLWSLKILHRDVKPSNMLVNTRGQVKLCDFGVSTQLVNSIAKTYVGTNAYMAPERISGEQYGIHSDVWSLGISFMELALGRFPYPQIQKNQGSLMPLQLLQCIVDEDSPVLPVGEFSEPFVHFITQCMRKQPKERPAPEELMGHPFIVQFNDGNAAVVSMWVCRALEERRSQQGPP

[17] = molecular target: Tyrosine-protein kinase ABL1 (Homo sapiens) (UniProt P00519); assay: Inhibition of wild-type human non-phosphorylated ABL1 (S229 to K512 residues) expressed in mammalian expression system at 10 uM by ATP-site competition binding assay based KinomeScan assay relative to control
Sequence of Tyrosine-protein kinase ABL1 (Homo sapiens) (P00519 whole entry, the tested form may be a part): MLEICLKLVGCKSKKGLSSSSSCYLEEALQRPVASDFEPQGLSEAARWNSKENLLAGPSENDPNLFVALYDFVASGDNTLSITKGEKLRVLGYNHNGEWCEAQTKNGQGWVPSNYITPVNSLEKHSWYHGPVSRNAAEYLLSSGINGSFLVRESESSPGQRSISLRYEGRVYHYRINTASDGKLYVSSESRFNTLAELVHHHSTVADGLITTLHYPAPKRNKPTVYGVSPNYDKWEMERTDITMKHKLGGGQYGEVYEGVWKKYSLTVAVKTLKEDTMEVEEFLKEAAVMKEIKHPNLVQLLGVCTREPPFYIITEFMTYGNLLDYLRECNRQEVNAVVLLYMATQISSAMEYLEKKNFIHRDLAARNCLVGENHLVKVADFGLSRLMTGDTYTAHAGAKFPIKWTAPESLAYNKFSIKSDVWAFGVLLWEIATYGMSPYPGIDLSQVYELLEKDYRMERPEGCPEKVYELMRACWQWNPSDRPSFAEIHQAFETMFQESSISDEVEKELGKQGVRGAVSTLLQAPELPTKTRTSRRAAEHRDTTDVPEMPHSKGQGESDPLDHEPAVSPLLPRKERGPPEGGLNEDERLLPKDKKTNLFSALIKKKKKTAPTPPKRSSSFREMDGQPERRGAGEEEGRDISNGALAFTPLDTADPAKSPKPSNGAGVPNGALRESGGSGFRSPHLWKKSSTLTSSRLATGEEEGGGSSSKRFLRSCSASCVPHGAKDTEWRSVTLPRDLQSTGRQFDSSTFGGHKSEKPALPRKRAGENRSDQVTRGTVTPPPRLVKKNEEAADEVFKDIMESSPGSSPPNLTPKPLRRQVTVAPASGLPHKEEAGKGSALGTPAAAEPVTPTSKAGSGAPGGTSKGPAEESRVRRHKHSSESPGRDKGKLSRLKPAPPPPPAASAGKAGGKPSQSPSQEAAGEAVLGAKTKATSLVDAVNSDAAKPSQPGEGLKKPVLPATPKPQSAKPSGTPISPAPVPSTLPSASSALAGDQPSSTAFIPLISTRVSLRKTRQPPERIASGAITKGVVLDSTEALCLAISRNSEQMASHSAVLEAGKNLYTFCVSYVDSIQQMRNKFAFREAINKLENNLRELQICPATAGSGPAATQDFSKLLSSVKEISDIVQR

COc1cc(-c2cnc3c(N4CCOC[C@H]4C)snc3c2)ccc1N
CC50 (Huh-7 [1]): > 10 µM

COc1cc(-c2cnc3c(NC4CCOCC4)snc3c2)ccc1N
CC50 (Huh-7 [1]): > 20 µM

COc1cc(-c2cnc3c(N4CCOC[C@@H]4C)snc3c2)ccc1N
CC50 (Huh-7 [1]): 6.32 µM

COc1cc(-c2cnc3c(N4CCC(C(N)=O)CC4)snc3c2)ccc1N
CC50 (Huh-7 [1]): > 10 µM

COc1cc(-c2cnc3c(N4CCO[C@H](C)C4)snc3c2)ccc1N
CC50 (Huh-7 [1]): 20.7 µM
CC50 (Huh-7 [2]): > 10 µM
Activity (Ebolavirus): Dose-dependent effect

COc1cc(-c2cnc3c(N4CCS(=O)(=O)CC4)snc3c2)ccc1N
CC50 (Huh-7 [1]): > 10 µM

COc1cc(-c2cnc3c(N4CC5(COC5)C4)snc3c2)ccc1N
CC50 (Huh-7 [1]): > 10 µM
Kd [3]: 0.17 µM
EC50 (dengue virus type 2 [4]): 7.12 µM
EC90 (dengue virus type 2 [4]): > 10 µM

CC(C)NCC(O)COc1cccc2ccccc12 (stereo not drawn) [PROPRANOLOL]
solubility [5]: 117 µM (≈ 30.3 µg/mL)

COc1cc(-c2cnc3c(N4CCO[C@@H](C)C4)snc3c2)ccc1N
CC50 (Huh-7 [1]): > 25 µM
Activity (Ebolavirus): Dose-dependent effect

COc1cc(-c2cnc3c(N4C[C@@H](C)O[C@H](C)C4)snc3c2)ccc1N (relative stereo)
CC50 (Huh-7 [1]): > 10 µM
EC50 (dengue virus type 2 [4]): 0.7 µM
EC90 (dengue virus type 2 [4]): 2.15 µM

COc1cc(-c2cnc3c(N4CCCC(C(N)=O)C4)snc3c2)ccc1N (stereo not drawn)
CC50 (Huh-7 [1]): > 10 µM

COc1cc(-c2cnc3c(N4CCC(N)CC4)snc3c2)ccc1N
CC50 (Huh-7 [1]): > 10 µM

COc1cc(-c2cnc3c(N4CCC(F)(F)CC4)snc3c2)ccc1N
CC50 (Huh-7 [1]): > 10 µM

COc1cc(-c2cnc3c(N4CC5CCC(C4)O5)snc3c2)ccc1N
CC50 (Huh-7 [1]): > 10 µM

COCCc1ccc(OCC(O)CNC(C)C)cc1 (stereo not drawn) [METOPROLOL]
Papp [6]: 30.66 ×10⁻⁶ cm/s
Papp [7]: 39.29 ×10⁻⁶ cm/s

COc1cc(-c2cnc3c(N4CCCCC4)snc3c2)ccc1N
CC50 (Huh-7 [1]): > 10 µM

COc1cc(-c2cnc3c(N4C[C@@H](C)O[C@@H](C)C4)snc3c2)ccc1N
inhibition [8]: > 90%
CC50 [9]: > 20 µM
Activity (Chikungunya virus): Dose-dependent effect
inhibition [10]: > 90%
Activity (Dengue virus): inactive
CC50 (Huh-7 [1]): > 25 µM
inhibition [11]: > 90%
solubility [5]: 0.52 µM (≈ 0.193 µg/mL)
inhibition [12]: > 90%
Kd [3]: 0.089 µM
EC50 (dengue virus type 2 [4]): 0.82 µM
EC90 (dengue virus type 2 [4]): 1.76 µM
CC50 (Huh-7 [2]): > 10 µM
inhibition [13]: > 90%
EC50 (dengue virus type 2 [14]): 3.54 µM
inhibition [15]: > 90%
EC90 (Ebolavirus): 7.73 µM
Papp [6]: 18.28 ×10⁻⁶ cm/s
Papp [7]: 31.33 ×10⁻⁶ cm/s
inhibition [16]: > 90%
inhibition [17]: > 90%

COc1cc(-c2cnc3c(N4CCOC(C)C4)snc3c2)ccc1N (racemic)
CC50 (Huh-7 [1]): 21.5 µM
CC50 (Huh-7 [2]): 9.4 µM
Activity (Ebolavirus): Dose-dependent effect

COc1cc(-c2cnc3c(N4CCC(C#N)CC4)snc3c2)ccc1N
CC50 (Huh-7 [1]): 2.09 µM

COc1cc(-c2cnc3c(N4CCOC(C)(C)C4)snc3c2)ccc1N
CC50 (Huh-7 [1]): 4.14 µM

COc1cc(-c2cnc3c(N4CCCOCC4)snc3c2)ccc1N
CC50 (Huh-7 [1]): > 10 µM

COc1cc(-c2cnc3c(N4CCNC(=O)C4)snc3c2)ccc1N
CC50 (Huh-7 [1]): > 10 µM
solubility [5]: 51.3 µM (≈ 18.2 µg/mL)
Papp [6]: 43.48 ×10⁻⁶ cm/s
Papp [7]: 30.32 ×10⁻⁶ cm/s

COc1cc(-c2cnc3c(N4CCOCC4)snc3c2)ccc1N
solubility [5]: 3.44 µM (≈ 1.18 µg/mL)
EC50 (dengue virus type 2 [4]): 1.84 µM
EC90 (dengue virus type 2 [4]): 8.05 µM
CC50 (Huh-7 [2]): 11 µM
EC90 (Ebolavirus): 21.9 µM
Papp [6]: 30.8 ×10⁻⁶ cm/s
Papp [7]: 45.45 ×10⁻⁶ cm/s
